Experimental data taken from US20250230193A1, “CYCLIC COMPOUND HAVING SELECTIVE KRAS INHIBITORY EFFECT ON HRAS AND NRAS” (CHUGAI SEIYAKU KABUSHIKI KAISHA, priority 2022, published 2025).
Where a SMILES comes first, the peptide text is derived from it. Bridges are numbered along the chain shown (N, C = ends). [ ]: non-standard residue; d: D form. The star is where a group is joined. hPhe(3-Cl-4-CF3) = N[C@@H](CCc1ccc(C(F)(F)F)c(Cl)c1)C(=O)O; NPrPhe(4-CF3) = CCCN[C@@H](Cc1ccc(C(F)(F)F)cc1)C(=O)O; NMeGly(cPent) = CN[C@H](C(=O)O)C1CCCC1; NMeD = CN[C@@H](CC(=O)O)C(=O)O; NMeL = CN[C@@H](CC(C)C)C(=O)O; Morpholide = C1CN(*)CCO1; Ac5c = NC1(C(=O)O)CCCC1; NEtG = CCNCC(=O)O; Sar = CNCC(=O)O

Tests used:
[1] = biological target: GDP-bound HRAS wild-type protein (Homo sapiens, UniProt P01112); assay: Binding to HRAS by surface plasmon resonance (SPR), Single Cycle Kinetics
GDP-bound HRAS wild-type protein, sequence (P01112 whole entry): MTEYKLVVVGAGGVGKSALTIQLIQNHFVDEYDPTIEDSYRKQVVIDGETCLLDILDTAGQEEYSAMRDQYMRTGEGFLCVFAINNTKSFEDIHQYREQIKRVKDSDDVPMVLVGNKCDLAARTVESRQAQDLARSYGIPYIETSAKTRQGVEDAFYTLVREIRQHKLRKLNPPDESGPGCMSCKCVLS

[2] = biological target: GDP-bound NRAS wild-type protein (Homo sapiens, UniProt P01111); assay: Binding to NRAS by surface plasmon resonance (SPR), Single Cycle Kinetics
GDP-bound NRAS wild-type protein, sequence (P01111 whole entry): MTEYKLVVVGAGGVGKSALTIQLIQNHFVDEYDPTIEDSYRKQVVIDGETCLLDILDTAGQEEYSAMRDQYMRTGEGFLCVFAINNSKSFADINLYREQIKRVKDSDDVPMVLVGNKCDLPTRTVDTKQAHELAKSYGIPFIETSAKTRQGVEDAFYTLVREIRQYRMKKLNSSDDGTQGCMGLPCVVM

[3] = KD ratio, GDP-bound HRAS wild-type vs GDP-bound KRAS wild-type, SPR
[4] = KD ratio, GDP-bound NRAS wild-type vs GDP-bound KRAS wild-type, SPR

SMILES: CCCN(C)C(=O)[C@@H]1CC(=O)N(C)[C@@H](CCOC)C(=O)N[C@@H]([C@@H](C)CC)C(=O)N(C)CC(=O)N(C)[C@H]2C/C=C\CCN(C2=O)[C@@H](Cc2ccc(C(F)(F)F)cc2)C(=O)N(C)CC(=O)N[C@@H](CCc2cc(F)c(C(F)(F)F)c(F)c2)C(=O)N2C[C@@H](C)C[C@H]2C(=O)NC2(CC(C)(C)C2)C(=O)N(C)[C@@H](C2CCCC2)C(=O)N1C [PP1974]
- HRAS/KRAS (ratio of KD value for HRAS to KD value for KRAS) [1, 3]: A (a compound having 10 or more and less than 20 is denoted as A)
- NRAS/KRAS (ratio of KD value for NRAS to KD value for KRAS) [2, 4]: A (a compound having 10 or more and less than 20 is denoted as A)

SMILES: CCO[C@@H]1C[C@H]2C(=O)NC3(CC(C)(C)C3)C(=O)N(C)[C@@H](C3CCCC3)C(=O)N(C)[C@H](C(=O)N(C)CC)CC(=O)N(C)[C@@H](CC)C(=O)N[C@@H]([C@@H](C)CC)C(=O)N(C)CC(=O)N(C)[C@H]3C/C=C\CCN(C3=O)[C@@H](Cc3ccc(C)cc3)C(=O)N(C)CC(=O)N[C@@H](CCc3ccc(C(F)(F)F)c(OC)c3)C(=O)N2C1 [PP1872]
- HRAS/KRAS (ratio of KD value for HRAS to KD value for KRAS) [1, 3]: A (a compound having 10 or more and less than 20 is denoted as A)
- NRAS/KRAS (ratio of KD value for NRAS to KD value for KRAS) [2, 4]: A (a compound having 10 or more and less than 20 is denoted as A)

SMILES: CCC[C@H]1C(=O)N[C@@H]([C@@H](C)CC)C(=O)N(C)CC(=O)N(C)[C@H]2C/C=C\CCN(C2=O)[C@@H](Cc2ccc(C)cc2)C(=O)N(C)CC(=O)N[C@@H](CCc2cc(F)c(C(F)(F)F)c(F)c2)C(=O)N2C[C@H](OCC)C[C@H]2C(=O)NC2(CC(C)(C)C2)C(=O)N(C)[C@@H](CC2CC2)C(=O)N(C)[C@H](C(=O)N(C)C)CC(=O)N1C [PP2797]
- HRAS/KRAS (ratio of KD value with respect to GDP-bound HRAS wild-type protein to KD value with respect to KRAS) ([1]; class symbols): A (a compound having 10 or more and less than 20 is denoted as A)
- NRAS/KRAS (ratio of KD value with respect to GDP-bound NRAS wild-type protein to KD value with respect to KRAS) ([2]; class symbols): A (a compound having 10 or more and less than 20 is denoted as A)

SMILES: CC[C@H](C)[C@@H]1NC(=O)[C@H](CC)N(C)C(=O)C[C@@H](C(=O)N(C)C)N(C)C(=O)[C@H](C2CCCC2)N(C)C(=O)C2(CCC2)NC(=O)[C@@H]2CCN2C(=O)[C@H](CCc2cc(F)c(C(F)(F)F)c(F)c2)NC(=O)CN(C)C(=O)[C@H](Cc2ccc(C(F)(F)F)cc2)N2CC/C=C\C[C@@H](C2=O)N(C)C(=O)CN(C)C1=O [PP1139]
- HRAS/KRAS (ratio of KD value with respect to HRAS to KD value with respect to KRAS) [1, 3]: A (a compound having 10 or more and less than 20 is denoted as A)
- NRAS/KRAS (ratio of KD value with respect to NRAS to KD value with respect to KRAS) [2, 4]: A (a compound having 10 or more and less than 20 is denoted as A)

SMILES: CC[C@H](C)[C@@H]1NC(=O)[C@H](C)N(C)C(=O)C[C@@H](C(=O)N2CCOCC2)N(C)C(=O)[C@H](C2CCCC2)N(C)C(=O)C2(CCCC2)NC(=O)[C@@H]2CCCN2C(=O)[C@H](CCc2cc(F)c(C(F)(F)F)c(F)c2)NC(=O)CN(C)C(=O)[C@H](Cc2ccc(C(F)(F)F)cc2)N2CCCC[C@@H](C2=O)N(C)C(=O)CN(C)C1=O [PP0549]
- HRAS/KRAS (ratio of KD value with respect to GDP-bound HRAS wild-type protein to KD value with respect to KRAS) ([1]; SPR): B (a compound having 3 or more and less than 10 is denoted as B)
- NRAS/KRAS (ratio of KD value with respect to GDP-bound NRAS wild-type protein to KD value with respect to KRAS) ([2]; SPR): C (A compound having a KD ratio of 0.1 or more and less than 3 is denoted as C)

SMILES: CCCN1C(=O)CN(CC)C(=O)CNC(=O)[C@H]([C@@H](C)CC)NC(=O)[C@H](CC(C)C)N(C)C(=O)C[C@@H](C(=O)N2CCOCC2)N(C)C(=O)[C@H](C2CCCC2)N(C)C(=O)C2(CCCC2)NC(=O)[C@@H]2CCCN2C(=O)[C@H](CCc2ccc(C(F)(F)F)c(Cl)c2)NC(=O)CN(C)C(=O)[C@@H]1Cc1ccc(C(F)(F)F)cc1 [PP1968] ([NMeL]IG[NEtG][NPrPhe(4-CF3)][Sar][hPhe(3-Cl-4-CF3)]P[Ac5c][NMeGly(cPent)][NMeD]-Morpholide; lactam N-11)
- HRAS/KRAS (ratio of KD value for HRAS to KD value for KRAS) [1, 3]: C (A compound having a KD ratio of 0.1 or more and less than 3 is denoted as C)
- NRAS/KRAS (ratio of KD value for NRAS to KD value for KRAS) [2, 4]: C (A compound having a KD ratio of 0.1 or more and less than 3 is denoted as C)

SMILES: CC[C@H](C)[C@@H]1NC(=O)[C@H](CC(C)C)N(C)C(=O)C[C@@H](C(=O)N2C3CCC2COC3)N(C)C(=O)[C@H](C2CCCC2)N(C)C(=O)C2(CCCC2)NC(=O)[C@@H]2CCCN2C(=O)[C@H](CCc2cc(F)c(C(F)(F)F)c(F)c2)NC(=O)CN(C)C(=O)[C@H](Cc2ccc(C(F)(F)F)cc2)N2CCCCC[C@@H](C2=O)N(C)C(=O)CN(C)C1=O [PP0511]
- HRAS/KRAS (ratio of KD value with respect to GDP-bound HRAS wild-type protein to KD value with respect to KRAS) ([1]; SPR): B (a compound having 3 or more and less than 10 is denoted as B)
- NRAS/KRAS (ratio of KD value with respect to GDP-bound NRAS wild-type protein to KD value with respect to KRAS) ([2]; SPR): A (a compound having 10 or more and less than 20 is denoted as A)
